Source: patent US20230026232A1, “AHR INHIBITORS AND USES THEREOF” (Ikena Oncology, Inc., priority 2019, published 2023)

Tests used:
[1] = target: T1, AHR (Homo sapiens, UniProt P35869); assay: HepG2 DRE-Luc reporter assay, VAF347-stimulated luciferase expression; type: cell-based; parameters: endogenous in cells; host or cells: HepG2 DRE-Luc reporter cell line; conditions: 80 nM VAF347, n=2
T1 sequence (P35869 11-848): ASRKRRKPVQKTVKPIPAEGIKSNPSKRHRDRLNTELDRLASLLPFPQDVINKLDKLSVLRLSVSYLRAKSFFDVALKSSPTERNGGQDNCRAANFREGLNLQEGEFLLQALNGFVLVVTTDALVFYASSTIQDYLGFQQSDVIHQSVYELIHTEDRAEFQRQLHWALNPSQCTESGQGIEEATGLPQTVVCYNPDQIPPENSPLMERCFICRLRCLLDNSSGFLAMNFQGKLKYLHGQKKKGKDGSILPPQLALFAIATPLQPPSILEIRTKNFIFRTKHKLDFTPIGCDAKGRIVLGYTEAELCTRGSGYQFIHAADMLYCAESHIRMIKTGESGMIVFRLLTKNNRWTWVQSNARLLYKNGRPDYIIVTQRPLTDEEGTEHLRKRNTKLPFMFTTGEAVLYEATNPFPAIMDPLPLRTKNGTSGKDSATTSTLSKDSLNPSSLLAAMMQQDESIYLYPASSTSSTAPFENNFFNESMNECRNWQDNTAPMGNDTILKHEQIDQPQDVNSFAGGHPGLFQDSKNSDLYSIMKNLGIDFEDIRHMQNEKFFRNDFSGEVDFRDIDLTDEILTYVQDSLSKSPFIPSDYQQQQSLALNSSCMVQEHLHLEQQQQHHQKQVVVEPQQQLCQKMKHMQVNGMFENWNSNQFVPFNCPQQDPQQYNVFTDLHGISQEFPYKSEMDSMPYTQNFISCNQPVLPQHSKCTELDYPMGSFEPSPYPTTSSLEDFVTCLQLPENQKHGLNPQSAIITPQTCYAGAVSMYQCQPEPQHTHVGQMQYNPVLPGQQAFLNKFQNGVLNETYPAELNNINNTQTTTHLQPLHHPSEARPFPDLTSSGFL
Protocol: In vitro experiments were conducted to examine the inhibitory activity of Compound A for AHR-mediated transcriptional activation in the HepG2 DRE-Luc reporter cell line. This human hepatoma cell line stably expresses a luciferase reporter gene under control of AHR-responsive DRE enhancer elements (Han, 2004). HepG2 DRE-Luc reporter cells were treated with 80 nM VAF347 to activate AHR.
The inhibitory activity of the human Compound A metabolites, Compound B and Compound C was also determined in the HepG2 DRE-Luc cell line. Reporter cells were stimulated with 80 nM VAF347 and each metabolite at multiple concentrations.

[2] = Phase 1 dose-escalation study: interim cohort pharmacokinetics; type: in vivo, human; conditions: for dose proportionality of PK: Cycle 2 Day 1 (C2D1)
Protocol: Serial blood samples are obtained to characterize the plasma PK of Compound A and its major active metabolites. The initial sampling strategy is based on the predicted human PK of this compound. If in the course of evaluating the PK, it is determined that an alternative sampling scheme would be more informative, then that alternative sampling scheme may be implemented if the total amount of blood and blood draws obtained for PK is not increased. Moreover, the total number of samples may be decreased at any time if the initial sampling scheme is considered unnecessarily intensive.
Interim cohort pharmacokinetics were assessed on parent (Compound A) and two active metabolites (Compound B and Compound C). […] Compound B metabolite ratio is increased on C2D1 in cohorts above 200 mg dosages. […] Without wishing to be bound or limited by theory, elimination rate limited kinetics likely contributing to the accumulation of Compound B through on-target inhibition of CYP1A1.

| SMILES | IC50 [1] [nM] | ratio to Compound A (AUC) ([2]; 400 mg and 800 mg dose) | dose proportionality of PK [2] | ratio to Compound A on C2D1 ([2]; 400 mg and 800 mg dose) | accumulation with repeat dosing ([2]; repeat dosing above 200 mg) | AUC compared with Compound A ([2]; repeated dosing, 2/3 subjects at 400 and 800 mg) |
| --- | --- | --- | --- | --- | --- | --- |
| C=C(C)c1cnn2c(N[C@@H]3CCc4[nH]c5ccccc5c4C3)nc(-c3cncc(F)c3)nc12 [Compound C] | 213 | 15-20 % of parent | greater than dose proportional |  |  |  |
| CC(C)(O)c1cnn2c(N[C@@H]3CCc4[nH]c5ccccc5c4C3)nc(-c3cncc(F)c3)nc12 [Compound B] | 23 |  | greater than dose proportional | 1.3-1.4 × parent | Accumulation of Compound B observed | greater than Compound A |
